Where a name gives a salt, the structure may show the parent alone.
Legend:
[1] = target: T1, recombinant human 5-HT6 receptor (Homo sapiens, UniProt P50406); experiment: Radioligand binding, competition for [3H]LSD in HEK293 cell membranes; settings: receptor not printed for this value in the sentence; radioligand binding of Example 13
T1 construct: expressed in transfected cells; membranes
Description: (§1) The binding activity of compounds of this invention in vitro was determined as follows. Duplicate determinations of 5-HT6 ligand affinity were made by competing for binding of [^3H]LSD in cell membranes derived from HEK293 cells stably expressing recombinant human 5-HT6 receptor. Duplicate determinations of 5-HT2A ligand affinity were made by competing for binding of [^3H]Ketanserin (3-(2-(4-(4-fluorobenzoyl)piperidinol)ethyl)-2,4(1H,3H)-quinazolinedione) in cell membranes derived from CHO-K^1 cells stably expressing recombinant human 5-HT2A receptor. Membranes were prepared from HEK 293 cell lines by the method described by Monsma et al., Molecular Pharmacology, Vol. 43 pp. 320-327 (1993), and from CHO-K1 cell lines as described by Bonhaus et al., Br J. Pharmacol. June; 115(4):622-8 (1995).
(§2) For estimation of affinity at the 5-HT6 receptor, all determinations were made in assay buffer containing 50 mM Tris-HCl, 10 mM MgSO4, 0.5 mM EDTA, 1 mM ascorbic acid, pH 7.4 at 37° C., in a 250 microliter reaction volume. […]
(§3) Assay tubes containing [^3H] […] LSD or [^3H]Ketanserin were determined as radioactive counts per minute using Packard TopCount.
(§4) Displacement of [^3H]LSD or [^3H]Ketanserin from the binding sites was quantified by fitting concentration-binding data to a 4-parameter logistic equation: […]

[2] = target: T2, recombinant human 5-HT2A receptor (Homo sapiens, UniProt P28223); experiment: Radioligand binding, competition for [3H]Ketanserin in CHO-K1 cell membranes; settings: [3H]Ketanserin displacement, read-out: pKi for the 5-HT2A receptor (converted)
T2 construct: expressed in transfected cells; membranes
T2 sequence (P28223 whole entry): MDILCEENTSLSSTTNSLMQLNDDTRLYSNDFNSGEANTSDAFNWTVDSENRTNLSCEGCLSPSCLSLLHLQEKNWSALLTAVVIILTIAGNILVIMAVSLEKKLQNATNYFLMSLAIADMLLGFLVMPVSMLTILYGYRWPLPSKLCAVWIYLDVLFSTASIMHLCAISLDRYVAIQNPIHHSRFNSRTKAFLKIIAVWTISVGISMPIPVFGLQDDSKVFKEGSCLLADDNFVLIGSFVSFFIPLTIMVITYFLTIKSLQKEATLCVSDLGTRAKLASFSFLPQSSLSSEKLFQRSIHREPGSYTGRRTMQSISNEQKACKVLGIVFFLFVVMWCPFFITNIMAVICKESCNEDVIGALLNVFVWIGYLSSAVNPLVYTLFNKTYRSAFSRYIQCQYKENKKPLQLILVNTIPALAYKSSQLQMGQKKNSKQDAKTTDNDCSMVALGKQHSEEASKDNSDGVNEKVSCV
Description: as §1, §2, §3, §4

T1 sequence (P50406 whole entry): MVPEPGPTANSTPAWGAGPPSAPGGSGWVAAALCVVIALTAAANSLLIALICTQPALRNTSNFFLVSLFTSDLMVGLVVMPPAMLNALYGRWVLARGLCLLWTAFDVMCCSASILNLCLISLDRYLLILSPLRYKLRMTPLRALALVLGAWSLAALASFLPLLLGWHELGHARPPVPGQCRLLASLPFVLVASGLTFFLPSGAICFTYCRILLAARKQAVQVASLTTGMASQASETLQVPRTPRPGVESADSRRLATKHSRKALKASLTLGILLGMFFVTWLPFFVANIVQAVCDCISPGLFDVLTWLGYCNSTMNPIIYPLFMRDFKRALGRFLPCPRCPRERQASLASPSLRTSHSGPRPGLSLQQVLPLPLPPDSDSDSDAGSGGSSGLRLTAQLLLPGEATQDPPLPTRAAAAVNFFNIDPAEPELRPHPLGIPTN

melting point [°C]	SMILES	other results
	O=c1[nH]c2c(N3CCNCC3)ccc(Cl)c2n1Cc1cccc(F)c1 [7-Chloro-1-(3-fluoro-benzyl)-4-piperazin-1-yl-1,3-dihydro-benzoimidazol-2-one]	Ki [1]: ~0.331 nM
210 to 216.6	O=c1[nH]c2c(OCC3CNC3)cccc2n1Cc1ccccc1 (as salt: hydrochloride)	
203.8 to 205.1	CNCCOc1cccc2c1n(C)c(=O)n2Cc1ccccc1 (as salt: hydrochloride)	
181 to 184	O=c1[nH]c2c(OC3CNC3)cccc2n1Cc1ccccc1	
	O=C1Cc2c(N3CCNCC3)cccc2N1Cc1ccc(F)c(F)c1 [1-(3,4-Difluoro-benzyl)-4-piperazin-1-yl-1,3-dihydro-indol-2-one]	Ki [2]: ~0.331 nM

From patent US7582760B2, “Benzimidazolone and dihydroindolone derivatives and uses thereof” (Roche Palo Alto LLC, priority 2005, dated 2009)
